Source: patent US9249129B2, “Morpholino substituted urea derivatives as mTOR inhibitors” (CELLZOME LIMITED, priority 2010, dated 2016)

How the values were obtained:
Assay in all cases: kinobeads assay with mass spectrometry detection of kinases (kinase selectivity profile)
Format in all cases: binding
kinases (kinome) [1] = molecular target: T1, kinases (kinome) (Homo sapiens, UniProt O14976); conditions: GAK (Other), IPI00298949
T1 construct: determined in kinobeads assays with mass spectrometry detection of kinases as described previously; endogenous in cells; host or cells: cell lysate
T1 sequence (O14976 1-1311): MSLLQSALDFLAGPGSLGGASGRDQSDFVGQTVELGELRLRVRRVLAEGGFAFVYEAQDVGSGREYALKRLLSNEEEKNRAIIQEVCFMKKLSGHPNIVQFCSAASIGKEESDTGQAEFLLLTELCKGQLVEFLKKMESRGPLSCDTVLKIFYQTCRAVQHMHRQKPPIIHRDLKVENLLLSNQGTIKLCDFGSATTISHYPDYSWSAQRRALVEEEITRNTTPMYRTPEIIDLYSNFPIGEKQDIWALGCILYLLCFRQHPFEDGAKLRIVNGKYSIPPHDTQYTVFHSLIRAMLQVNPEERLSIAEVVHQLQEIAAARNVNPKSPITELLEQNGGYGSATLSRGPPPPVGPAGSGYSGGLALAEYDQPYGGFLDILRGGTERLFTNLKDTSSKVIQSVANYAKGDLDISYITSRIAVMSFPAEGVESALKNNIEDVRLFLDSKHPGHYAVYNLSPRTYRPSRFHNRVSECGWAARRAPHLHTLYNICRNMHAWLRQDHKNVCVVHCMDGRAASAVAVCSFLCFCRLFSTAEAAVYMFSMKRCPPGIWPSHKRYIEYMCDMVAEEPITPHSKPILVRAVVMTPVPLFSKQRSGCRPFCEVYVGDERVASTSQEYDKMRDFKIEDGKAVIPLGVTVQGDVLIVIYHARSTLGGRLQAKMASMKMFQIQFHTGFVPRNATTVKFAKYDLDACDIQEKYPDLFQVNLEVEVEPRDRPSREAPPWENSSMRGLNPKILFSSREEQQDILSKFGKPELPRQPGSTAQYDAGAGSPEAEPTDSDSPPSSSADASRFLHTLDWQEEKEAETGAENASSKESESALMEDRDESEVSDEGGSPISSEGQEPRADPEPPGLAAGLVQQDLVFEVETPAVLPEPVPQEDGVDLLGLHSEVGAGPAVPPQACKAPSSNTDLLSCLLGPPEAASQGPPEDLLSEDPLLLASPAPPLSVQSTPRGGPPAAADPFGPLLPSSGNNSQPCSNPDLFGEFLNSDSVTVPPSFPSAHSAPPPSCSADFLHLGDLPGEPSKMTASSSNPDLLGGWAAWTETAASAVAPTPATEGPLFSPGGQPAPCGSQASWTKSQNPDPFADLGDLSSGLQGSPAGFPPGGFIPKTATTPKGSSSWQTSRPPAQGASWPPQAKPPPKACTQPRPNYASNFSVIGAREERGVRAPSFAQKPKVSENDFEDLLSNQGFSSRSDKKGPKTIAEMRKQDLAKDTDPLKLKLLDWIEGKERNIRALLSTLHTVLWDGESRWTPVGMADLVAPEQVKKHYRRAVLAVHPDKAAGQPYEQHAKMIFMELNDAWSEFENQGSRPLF
From the text: (§1) The protein kinase complement of the human genome (the kinome) was described previously (Manning et al., 2002. Science 298(5600):1912-1934). Sequence accession numbers are defined by the International Protein Index (IPI) (Kersey et al., 2004. Proteomics 4(7):1985-1988).

kinases (kinome) [2] = molecular target: T2, kinases (kinome) (Homo sapiens, UniProt O94768); conditions: DRAK2 (CAMK), IPI00916930
T2 construct: determined in kinobeads assays with mass spectrometry detection of kinases as described previously; endogenous in cells; host or cells: cell lysate
T2 sequence (O94768 1-372): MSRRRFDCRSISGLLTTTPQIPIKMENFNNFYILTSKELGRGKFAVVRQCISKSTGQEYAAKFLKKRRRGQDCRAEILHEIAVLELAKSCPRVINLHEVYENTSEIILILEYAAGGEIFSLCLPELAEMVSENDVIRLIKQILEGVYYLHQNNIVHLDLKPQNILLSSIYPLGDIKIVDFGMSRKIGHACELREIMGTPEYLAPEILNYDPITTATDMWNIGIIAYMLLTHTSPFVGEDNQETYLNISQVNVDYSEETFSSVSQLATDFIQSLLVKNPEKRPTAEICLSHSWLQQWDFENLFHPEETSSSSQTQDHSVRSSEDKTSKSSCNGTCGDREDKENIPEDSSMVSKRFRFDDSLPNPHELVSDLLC
From the text: as §1

kinases (kinome) [3] = molecular target: T3, kinases (kinome) (Homo sapiens, UniProt P06493); conditions: CDC2 (CMGC), IPI00026689
T3 construct: determined in kinobeads assays with mass spectrometry detection of kinases as described previously; endogenous in cells; host or cells: cell lysate
From the text: as §1

kinases (kinome) [4] = molecular target: T4, kinases (kinome) (Homo sapiens, UniProt P37173); conditions: TGFbR2 (TKL), IPI00164934
T4 construct: determined in kinobeads assays with mass spectrometry detection of kinases as described previously; endogenous in cells; host or cells: cell lysate
From the text: as §1

kinases (kinome) [5] = molecular target: T5, kinases (kinome) (Homo sapiens, UniProt Q15131); conditions: CDK10 (CMGC), IPI00014873
T5 construct: determined in kinobeads assays with mass spectrometry detection of kinases as described previously; endogenous in cells; host or cells: cell lysate
From the text: as §1

kinases (kinome) [6] = molecular target: T6, kinases (kinome) (Homo sapiens, UniProt Q15759); conditions: p38b (CMGC), IPI00019473
T6 construct: determined in kinobeads assays with mass spectrometry detection of kinases as described previously; endogenous in cells; host or cells: cell lysate
From the text: as §1

kinases (kinome) [7] = molecular target: T7, kinases (kinome) (Homo sapiens, UniProt Q16584); conditions: MLK3 (TKL), IPI00000977
T7 construct: determined in kinobeads assays with mass spectrometry detection of kinases as described previously; endogenous in cells; host or cells: cell lysate
From the text: as §1

kinases (kinome) [8] = molecular target: T8, kinases (kinome) (Homo sapiens, UniProt Q8N5S9); conditions: CaMKK1 (Other), IPI00792960
T8 construct: determined in kinobeads assays with mass spectrometry detection of kinases as described previously; endogenous in cells; host or cells: cell lysate
From the text: as §1

kinases (kinome) [9] = molecular target: T9, kinases (kinome) (Homo sapiens, UniProt Q9P2K8); conditions: GCN2 (Other), IPI00163851
T9 construct: determined in kinobeads assays with mass spectrometry detection of kinases as described previously; endogenous in cells; host or cells: cell lysate
From the text: as §1

Measured: IC50

T7 sequence (Q16584 whole entry): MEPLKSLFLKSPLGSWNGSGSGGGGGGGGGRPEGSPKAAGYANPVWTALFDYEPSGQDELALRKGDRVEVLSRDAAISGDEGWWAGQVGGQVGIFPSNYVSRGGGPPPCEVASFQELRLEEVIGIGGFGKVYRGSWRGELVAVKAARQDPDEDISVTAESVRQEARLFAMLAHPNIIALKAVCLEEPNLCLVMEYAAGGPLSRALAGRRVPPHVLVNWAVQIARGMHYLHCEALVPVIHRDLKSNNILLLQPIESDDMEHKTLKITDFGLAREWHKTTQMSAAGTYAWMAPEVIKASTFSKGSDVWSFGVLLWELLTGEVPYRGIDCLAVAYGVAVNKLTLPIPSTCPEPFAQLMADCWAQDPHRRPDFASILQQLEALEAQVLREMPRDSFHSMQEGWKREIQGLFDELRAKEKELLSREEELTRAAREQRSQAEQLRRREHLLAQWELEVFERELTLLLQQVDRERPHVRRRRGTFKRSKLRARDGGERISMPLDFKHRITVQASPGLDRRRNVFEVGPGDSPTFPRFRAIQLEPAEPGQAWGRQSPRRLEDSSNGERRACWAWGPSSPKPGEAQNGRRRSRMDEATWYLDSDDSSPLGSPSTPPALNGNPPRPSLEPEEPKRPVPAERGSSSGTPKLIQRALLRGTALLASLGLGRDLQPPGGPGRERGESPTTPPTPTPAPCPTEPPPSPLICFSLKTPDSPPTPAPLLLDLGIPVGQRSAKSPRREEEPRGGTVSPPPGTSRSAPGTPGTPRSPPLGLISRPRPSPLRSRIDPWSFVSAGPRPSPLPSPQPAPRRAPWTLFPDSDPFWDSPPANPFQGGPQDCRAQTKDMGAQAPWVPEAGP
T4 sequence (P37173 23-567): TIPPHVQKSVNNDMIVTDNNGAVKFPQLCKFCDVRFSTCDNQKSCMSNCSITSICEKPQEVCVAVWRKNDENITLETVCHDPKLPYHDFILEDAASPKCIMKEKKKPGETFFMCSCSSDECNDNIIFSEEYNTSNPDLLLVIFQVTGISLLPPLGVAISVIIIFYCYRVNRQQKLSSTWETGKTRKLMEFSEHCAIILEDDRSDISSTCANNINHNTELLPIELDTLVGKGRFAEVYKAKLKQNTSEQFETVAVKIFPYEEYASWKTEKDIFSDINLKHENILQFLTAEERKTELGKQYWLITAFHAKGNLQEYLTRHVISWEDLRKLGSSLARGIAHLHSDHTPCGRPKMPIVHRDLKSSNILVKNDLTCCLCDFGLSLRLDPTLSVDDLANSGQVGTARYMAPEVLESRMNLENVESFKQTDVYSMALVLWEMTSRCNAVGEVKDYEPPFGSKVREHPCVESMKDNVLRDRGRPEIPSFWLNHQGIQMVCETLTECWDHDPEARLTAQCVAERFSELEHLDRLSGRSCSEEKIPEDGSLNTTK
T8 sequence (Q8N5S9 whole entry): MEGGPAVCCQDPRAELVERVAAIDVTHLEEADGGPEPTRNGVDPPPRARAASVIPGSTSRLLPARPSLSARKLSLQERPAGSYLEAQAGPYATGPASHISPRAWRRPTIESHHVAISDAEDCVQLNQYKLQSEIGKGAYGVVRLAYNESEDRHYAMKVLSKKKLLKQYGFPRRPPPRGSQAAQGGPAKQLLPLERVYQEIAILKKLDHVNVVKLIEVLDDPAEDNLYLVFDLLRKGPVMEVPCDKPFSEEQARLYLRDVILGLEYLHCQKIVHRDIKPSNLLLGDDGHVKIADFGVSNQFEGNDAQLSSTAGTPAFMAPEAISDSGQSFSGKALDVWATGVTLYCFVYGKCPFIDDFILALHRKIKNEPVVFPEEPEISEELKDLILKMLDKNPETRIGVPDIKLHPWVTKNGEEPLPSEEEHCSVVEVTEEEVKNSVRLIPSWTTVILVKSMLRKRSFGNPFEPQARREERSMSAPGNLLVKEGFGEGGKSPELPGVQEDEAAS
T9 sequence (Q9P2K8 whole entry): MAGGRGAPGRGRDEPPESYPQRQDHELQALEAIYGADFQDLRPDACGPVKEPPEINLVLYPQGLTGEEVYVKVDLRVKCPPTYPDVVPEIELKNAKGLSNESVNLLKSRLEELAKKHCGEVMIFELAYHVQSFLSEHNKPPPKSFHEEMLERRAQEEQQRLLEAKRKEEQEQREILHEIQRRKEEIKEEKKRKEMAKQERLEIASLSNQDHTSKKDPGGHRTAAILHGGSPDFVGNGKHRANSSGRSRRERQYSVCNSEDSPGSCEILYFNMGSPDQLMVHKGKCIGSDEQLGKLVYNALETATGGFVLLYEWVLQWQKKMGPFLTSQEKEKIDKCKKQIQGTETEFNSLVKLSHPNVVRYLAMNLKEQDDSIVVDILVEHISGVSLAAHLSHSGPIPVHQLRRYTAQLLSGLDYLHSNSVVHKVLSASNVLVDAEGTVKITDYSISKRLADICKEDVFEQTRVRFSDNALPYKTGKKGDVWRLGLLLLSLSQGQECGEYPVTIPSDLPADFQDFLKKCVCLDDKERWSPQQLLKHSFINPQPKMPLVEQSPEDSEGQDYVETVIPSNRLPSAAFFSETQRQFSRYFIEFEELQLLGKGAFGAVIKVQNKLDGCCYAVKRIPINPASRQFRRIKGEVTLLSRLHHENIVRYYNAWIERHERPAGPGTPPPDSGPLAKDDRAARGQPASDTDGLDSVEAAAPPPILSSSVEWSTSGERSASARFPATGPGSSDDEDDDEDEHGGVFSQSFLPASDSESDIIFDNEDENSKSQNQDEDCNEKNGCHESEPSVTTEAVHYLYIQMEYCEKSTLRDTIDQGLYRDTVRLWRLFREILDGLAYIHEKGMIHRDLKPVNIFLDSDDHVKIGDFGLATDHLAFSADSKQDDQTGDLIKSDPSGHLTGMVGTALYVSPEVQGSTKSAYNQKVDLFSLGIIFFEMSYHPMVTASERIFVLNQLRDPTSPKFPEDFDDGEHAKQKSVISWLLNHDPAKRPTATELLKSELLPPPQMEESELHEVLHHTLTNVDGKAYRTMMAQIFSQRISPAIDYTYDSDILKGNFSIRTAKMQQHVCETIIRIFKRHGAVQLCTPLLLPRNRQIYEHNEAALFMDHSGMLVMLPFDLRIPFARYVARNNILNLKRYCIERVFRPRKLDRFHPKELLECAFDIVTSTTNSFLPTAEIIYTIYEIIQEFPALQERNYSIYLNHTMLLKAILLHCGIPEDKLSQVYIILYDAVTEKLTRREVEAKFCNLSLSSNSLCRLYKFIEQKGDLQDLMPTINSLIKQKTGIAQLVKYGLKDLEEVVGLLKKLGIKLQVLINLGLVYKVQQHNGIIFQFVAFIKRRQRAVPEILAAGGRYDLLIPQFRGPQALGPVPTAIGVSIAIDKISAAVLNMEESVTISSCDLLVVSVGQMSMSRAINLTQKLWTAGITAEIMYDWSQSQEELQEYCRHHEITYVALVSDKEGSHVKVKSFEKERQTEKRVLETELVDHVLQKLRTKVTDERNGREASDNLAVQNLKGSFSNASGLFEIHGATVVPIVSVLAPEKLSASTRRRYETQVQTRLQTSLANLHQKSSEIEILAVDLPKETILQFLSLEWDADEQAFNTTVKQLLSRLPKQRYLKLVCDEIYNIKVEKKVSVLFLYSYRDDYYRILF
T3 sequence (P06493 whole entry): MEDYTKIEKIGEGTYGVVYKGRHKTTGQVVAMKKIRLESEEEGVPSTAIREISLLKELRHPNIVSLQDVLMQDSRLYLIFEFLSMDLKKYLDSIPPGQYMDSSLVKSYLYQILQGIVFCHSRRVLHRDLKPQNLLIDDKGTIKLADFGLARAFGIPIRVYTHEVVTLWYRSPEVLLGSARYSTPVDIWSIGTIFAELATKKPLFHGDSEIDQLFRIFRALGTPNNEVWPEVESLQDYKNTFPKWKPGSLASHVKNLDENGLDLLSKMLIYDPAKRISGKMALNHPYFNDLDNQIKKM
T6 sequence (Q15759 whole entry): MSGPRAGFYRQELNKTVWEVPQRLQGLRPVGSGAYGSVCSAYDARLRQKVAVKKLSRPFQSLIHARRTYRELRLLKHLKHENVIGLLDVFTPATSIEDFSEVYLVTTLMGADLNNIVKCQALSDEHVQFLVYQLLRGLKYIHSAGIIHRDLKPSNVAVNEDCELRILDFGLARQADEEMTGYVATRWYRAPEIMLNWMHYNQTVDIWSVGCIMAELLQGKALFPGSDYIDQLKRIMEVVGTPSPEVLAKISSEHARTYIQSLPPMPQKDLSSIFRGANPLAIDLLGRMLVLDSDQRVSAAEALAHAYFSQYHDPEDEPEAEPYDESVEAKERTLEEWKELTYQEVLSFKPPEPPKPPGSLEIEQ
T5 sequence (Q15131 whole entry): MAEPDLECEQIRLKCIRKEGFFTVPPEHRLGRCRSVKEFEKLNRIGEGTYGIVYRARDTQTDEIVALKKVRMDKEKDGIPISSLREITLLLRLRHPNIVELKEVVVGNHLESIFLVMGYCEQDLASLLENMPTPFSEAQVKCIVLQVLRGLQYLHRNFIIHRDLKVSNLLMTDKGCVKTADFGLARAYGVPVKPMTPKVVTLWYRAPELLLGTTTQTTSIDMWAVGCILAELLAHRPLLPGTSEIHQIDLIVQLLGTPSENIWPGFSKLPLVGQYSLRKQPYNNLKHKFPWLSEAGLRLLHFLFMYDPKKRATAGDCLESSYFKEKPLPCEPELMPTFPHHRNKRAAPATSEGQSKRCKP

C[C@H]1COCCN1c1nc(-c2ccc(NC(=O)NC3CC3)cc2)cc(-c2ccccc2S(C)(=O)=O)n1 [Example 4, (S)-1-cyclopropyl-3-(4-(2-(3-methylmorpholino)-6-(2-(methylsulfonyl)phenyl)pyrimidin-4-yl)phenyl)urea]
> 10 µM: all assays above

C[C@H]1COCCN1c1cc(-c2ccccc2S(C)(=O)=O)nc(-c2ccc(NC(=O)NC3CC3)cc2)n1 [Example 6, (S)-1-cyclopropyl-3-(4-(4-(3-methylmorpholino)-6-(2-(methylsulfonyl)phenyl)pyrimidin-2-yl)phenyl)urea]
> 10 µM: kinases (kinome) [4] | kinases (kinome) [6] | kinases (kinome) [7] | kinases (kinome) [9]

CCNC(=O)Nc1ccc(-c2cc(-c3ccccc3C#N)nc(N3CCOC[C@@H]3C)n2)cc1 [Example 8, (S)-1-(4-(6-(2-cyanophenyl)-2-(3-methylmorpholino)pyrimidin-4-yl)phenyl)-3-ethylurea]
> 10 µM: kinases (kinome) [7]

C[C@H]1COCCN1c1nc(-c2ccc(NC(=O)NC3CC3)cc2)cc(-c2cc(F)ccc2S(C)(=O)=O)n1 [Example 40, (S)-1-cyclopropyl-3-(4-(6-(5-fluoro-2-(methylsulfonyl)phenyl)-2-(3-methylmorpholino)pyrimidin-4-yl)phenyl)urea]
not listed: kinases (kinome) [6] | kinases (kinome) [9]
> 10 µM: all other assays above

C[C@H]1COCCN1c1cc(-c2ccccn2)nc(-c2ccc(NC(=O)NCCO)cc2)n1 [Example 43, (S)-1-(2-hydroxyethyl)-3-(4-(4-(3-methylmorpholino)-6-(pyridin-2-yl)pyrimidin-2-yl)phenyl)urea]
not listed: kinases (kinome) [2] | kinases (kinome) [3] | kinases (kinome) [4]
> 10 µM: all other assays above

C[C@H]1COCCN1c1nc(-c2ccc(NC(=O)NC3CC3)cc2)cc(-c2cccnc2S(C)(=O)=O)n1 [Example 46, (S)-1-cyclopropyl-3-(4-(2-(3-methylmorpholino)-6-(2-(methylsulfonyl)pyridin-3-yl)pyrimidin-4-yl)phenyl)urea]
not listed: kinases (kinome) [5] | kinases (kinome) [6] | kinases (kinome) [7]
> 10 µM: all other assays above

C[C@H]1COCCN1c1nc(-c2ccc(NC(=O)N[C@H]3CCC[C@@H]3O)cc2)cc(-c2cc(F)ccc2S(C)(=O)=O)n1 [Example 76, 1-(4-(6-(5-fluoro-2-(methylsulfonyl)phenyl)-2-((S)-3-methylmorpholino)pyrimidin-4-yl)phenyl)-3-((1S,2S)-2-hydroxycyclopentyl)urea]
> 10 µM: kinases (kinome) [1] | kinases (kinome) [3] | kinases (kinome) [4] | kinases (kinome) [8]
